Source: ChEMBL document CHEMBL1201862, “PubChem BioAssay data set” (2004)
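Five compound concentrations were applied to cells in 96-well plates for 48 hours; endpoints were derived by simple linear interpolation of the resulting dose-response curve. The concentration for 50% growth inhibition is given as GI50.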 Active and inactive are the calls of the source. Cut-off read from the data, not from the text of the source: active = GI50 up to about 1.1 µM and inactive = higher.

Key:
Assay in all cases: inhibition of tumour cell growth, NCI panel, 48 h
[1] = tested on: COLO 205
[2] = tested on: LOX IMVI
[3] = tested on: SK-MEL-2
[4] = tested on: SNB-75
[5] = tested on: RPMI-8226
[6] = tested on: SK-MEL-5
[7] = tested on: 786-0
[8] = tested on: EKVX
[9] = tested on: M14
[10] = tested on: NCI-H23
[11] = tested on: CAKI-1
[12] = tested on: MOLT-4
[13] = tested on: SNB-19
[14] = tested on: A498
[15] = tested on: NCI-H226
[16] = tested on: SR

Measured: GI50

CC1C=C(OC(=O)c2ccccc2)C(=O)C(n2cc(F)c(=O)n(C(=O)c3ccccc3)c2=O)O1 (configuration not stated)
inactive: [1] 26.9 µM | [2] 23.1 µM | [3] 45.3 µM | [4] 49.2 µM | [5] 38.1 µM | [6] 73.8 µM | [7] 28.5 µM | [8] > 100 µM | [9] 51.3 µM | [10] 43 µM | [11] 32.4 µM | [12] 32.7 µM | [13] > 100 µM

CC1NOC(=O)C1/N=N/c1ccccc1Cl (configuration not stated)
inactive: [1] 57.7 µM | [2] 20.6 µM | [3] 25.4 µM | [4] 21.2 µM | [5] 20.4 µM | [6] 13.8 µM | [7] 26.5 µM | [8] 88.9 µM | [9] 40.6 µM | [10] 29.9 µM | [11] 25.5 µM | [12] > 10 µM | [13] 51.1 µM | [14] 17 µM

O=C(c1ccccc1)c1c(CC(O)c2cccnc2)n(C(=O)c2ccccc2)c2ccccc12 (configuration not stated)
inactive: [1] 22.3 µM | [3] 20.3 µM | [15] 11.7 µM | [4] 3.72 µM | [5] 15.8 µM | [6] 16.9 µM | [7] 33.2 µM | [9] 19.1 µM | [10] 16.5 µM | [16] 13.5 µM | [11] 26.4 µM | [12] 17.9 µM | [13] 18.9 µM

COCC1N=C(c2ccc(OC)c(OCc3ccccc3)c2OC)O[C@H]1c1ccccc1 (some centres not stated)
inactive: [1] 18.1 µM | [2] 13.9 µM | [3] 23.4 µM | [15] 29 µM | [4] 25.3 µM | [5] 5.65 µM | [6] 11.9 µM | [7] 29.9 µM | [8] 34 µM | [9] 14.6 µM | [10] 17.7 µM | [12] 5.81 µM | [13] 29.9 µM | [14] 6.19 µM

COc1ccc(C)cc1C1CCC(=O)O1 (configuration not stated)
inactive: [1] > 100 µM | [2] > 100 µM | [3] > 100 µM | [15] > 100 µM | [4] > 100 µM | [5] > 100 µM | [6] > 100 µM | [7] > 100 µM | [8] > 100 µM | [9] > 100 µM | [10] > 100 µM | [16] > 100 µM | [12] > 100 µM | [13] > 100 µM | [14] > 100 µM

O=C1c2cc3c(cc2[C@@H]2C(O)[C@H]4O[C@H]4C4CCN1C42)OCO3 (some centres not stated)
inactive: [1] > 37.5 µM | [2] > 37.5 µM | [3] > 37.5 µM | [15] > 37.5 µM | [5] > 37.5 µM | [8] > 37.5 µM | [9] > 37.5 µM | [16] > 37.5 µM | [11] 25.3 µM | [12] > 37.5 µM | [13] > 37.5 µM

CN(NC1OC(CO)C(O)C(O)C1O)c1ccccc1 (configuration not stated)
inactive: [1] > 100 µM | [2] > 100 µM | [15] > 100 µM | [5] > 100 µM | [6] > 100 µM | [7] > 100 µM | [9] > 100 µM | [10] > 100 µM | [16] > 100 µM | [11] > 100 µM | [12] > 100 µM | [13] > 100 µM

O=C1c2ccccc2C(=O)N1CCn1nc(-c2ccccc2)cc(-c2ccccc2)c1=O
inactive: [1] 63.2 µM | [3] 82 µM | [15] 50.1 µM | [4] 46.7 µM | [5] 5.41 µM | [6] 52.5 µM | [7] > 100 µM | [8] 51.5 µM | [9] > 100 µM | [10] 43.2 µM | [16] 5.4 µM | [12] 26.4 µM | [13] > 100 µM

O=C1C(=O)N(c2cc(Cl)ccc2Cl)C(=O)C(=O)C1c1nc2ccccc2o1
inactive: [1] > 100 µM | [2] > 100 µM | [3] > 100 µM | [4] > 67.6 µM | [5] > 100 µM | [6] > 100 µM | [7] > 100 µM | [8] > 100 µM | [9] > 91.8 µM | [10] > 100 µM | [11] > 100 µM | [12] 30.1 µM | [13] > 100 µM | [14] > 100 µM

COCCOCCOCCOc1cccc2c1C(=O)c1cccc(OCCOCCOCCOC)c1C2=O
inactive: [1] > 100 µM | [2] 70.1 µM | [4] > 100 µM | [5] 65.3 µM | [6] 81.5 µM | [7] > 100 µM | [8] > 100 µM | [9] > 100 µM | [10] > 100 µM | [11] > 100 µM | [12] 71.8 µM | [13] > 100 µM | [14] > 100 µM

COc1cccc(-c2nccc3c(OCc4ccccc4)c(OC)c(OC)cc23)c1
inactive: [1] > 100 µM | [2] > 100 µM | [3] 30.1 µM | [15] > 100 µM | [4] > 100 µM | [5] 7.08 µM | [6] 8.97 µM | [7] > 10 µM | [8] > 100 µM | [9] > 100 µM | [10] 4.09 µM | [16] 6.68 µM | [12] 5.53 µM | [13] > 100 µM | [14] > 100 µM

CC(=O)NNc1nc(C)c(C(=O)NNC(=O)C(=O)Nc2ccc(Cl)cc2)s1
inactive: [1] > 100 µM | [2] 53 µM | [3] > 100 µM | [15] > 100 µM | [5] > 100 µM | [6] > 100 µM | [7] > 100 µM | [8] > 100 µM | [9] > 100 µM | [10] > 100 µM | [16] 68.5 µM | [12] 37.4 µM | [13] > 100 µM

N=c1oc2cc(O)c(O)cc2cc1C(N)=O
inactive: [1] > 100 µM | [2] > 100 µM | [3] > 100 µM | [15] > 100 µM | [4] 25 µM | [5] > 100 µM | [6] > 100 µM | [7] 43.5 µM | [8] > 100 µM | [9] > 100 µM | [10] > 100 µM | [11] > 100 µM | [12] 84.9 µM | [13] > 100 µM | [14] > 100 µM

Cc1nc(N)nn1C1OCC(O)C(O)C1O (configuration not stated)
inactive: [1] > 100 µM | [3] > 100 µM | [4] 93.5 µM | [5] > 100 µM | [6] > 100 µM | [7] > 100 µM | [8] > 100 µM | [9] > 100 µM | [10] > 100 µM | [11] > 100 µM | [12] > 100 µM | [13] > 100 µM | [14] > 100 µM

CN(C)/C(=N\C#N)N(Cc1ccccc1)Cc1ccccc1
inactive: [1] 74 µM | [2] 36.6 µM | [3] > 100 µM | [15] > 100 µM | [4] > 100 µM | [5] 32.5 µM | [6] > 100 µM | [7] > 100 µM | [8] > 100 µM | [9] > 100 µM | [10] > 100 µM | [11] > 100 µM | [13] > 100 µM | [14] 49 µM
